Measured values as given in PubChem BioAssay (NCI).
Where “and” joins values, the source holds several entries; their conditions need not be identical. Identical values can stand only once.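 These data come from cells grown in 96-well plates and exposed to compound for 48 hours at five concentrations. The concentration for 50% growth inhibition is given as GI50. The concentration for full growth arrest is given as TGI.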

Tests used:
Assay in all cases: growth of human tumour cells (NCI), 48 h
[1] = test system: SF-539 CNS
[2] = test system: UACC-62 melanoma
[3] = test system: NCI-H226 lung
[4] = test system: BT-549 breast
[5] = test system: HCT-116 colon
[6] = test system: SR leukemia
[7] = test system: SN12C renal
[8] = test system: SNB-19 CNS
[9] = test system: LXFL 529 NSCLC
[10] = test system: M19-MEL melanoma

Row | Compound | GI50 [1] | TGI [1] | GI50 [2] | TGI [2] | GI50 [3] | TGI [3] | GI50 [4] | TGI [4] | GI50 [5] | TGI [5] | GI50 [6] | TGI [6] | GI50 [7] | TGI [7] | GI50 [8] | TGI [8] | TGI [9] | TGI [10]
1 | COc1ccc(/C=C/C(=O)c2ccc(SC)cc2)cc1OC | 12 µM | 27.3 µM | 12.7 µM | 27.1 µM | 8.42 µM | 45.1 µM | 2.86 µM | 6.66 µM | 2.65 µM | 10.1 µM | 3.06 µM | 42.9 µM | 13 µM | 26.5 µM | 21 µM | 56.9 µM |  | 
2 | CCOc1ccccc1NC(=O)CC1SC(=Nc2ccc([N+](=O)[O-])cc2)NC1=O (configuration not stated) |  |  |  | 39.9 µM |  | 41.8 µM |  |  |  | 29.3 µM |  |  |  | 53.9 µM |  | > 100 µM | 39.9 µM | 64.4 µM
3 | COc1c(OC)c(OC)c2c(c1OC)c(=O)c1ccccc1n2C |  | > 100 µM |  | > 100 µM |  | > 100 µM |  | > 100 µM |  | > 100 µM |  | > 100 µM |  | > 100 µM |  | > 100 µM |  | 
4 | O=C1NC(=O)C2C(=O)NC(=O)C1C2(c1ccccc1)c1cc[nH]c1 (configuration not stated) |  | > 100 µM |  | > 100 µM |  | > 100 µM |  |  |  |  |  |  |  | > 100 µM |  | > 100 µM | > 100 µM | > 100 µM
5 | Ic1ccccc1-c1ccccc1 | > 100 µM | > 100 µM | 46.7 µM | > 100 µM | > 100 µM | > 100 µM | > 100 µM | > 100 µM | 94.9 µM | > 100 µM | 18.3 µM | > 100 µM | > 100 µM | > 100 µM | > 100 µM | > 100 µM |  | 
6 | C=C(CN1C(=O)[C@H]2CCCN2C(=O)c2ccccc21)c1ccc(C(=O)O)cc1 | > 100 µM | > 100 µM | > 100 µM | > 100 µM | > 100 µM | > 100 µM | > 100 µM | > 100 µM | > 100 µM | > 100 µM | > 100 µM | > 100 µM | > 100 µM | > 100 µM | > 100 µM | > 100 µM |  | 
7 | Cc1cc2nc3c4cc(N)ccc4n(CCN(C)C)c3nc2cc1C | 0.839 µM | 4.66 µM | 0.824 µM | 2.75 µM | 0.896 µM | 4.1 µM | 2.23 µM | 8.73 µM | 0.365 µM | 10.9 µM | 0.285 µM | 7.29 µM | 0.484 µM | 11.7 µM | 0.669 µM | 11.4 µM |  | 
8 | CC1(C)N=C(N)N=C(N)N1c1ccc(OCCCCOc2ccc(S(=O)(=O)F)cc2)c(Cl)c1 | 0.398 µM | 8.39 µM | 0.0534 µM | 18 µM | 0.58 µM | 28.1 µM | 1.32 µM | 17.3 µM | 0.0463 µM | 16.7 µM | 0.0445 µM | 26.9 µM | 0.0575 µM | 15.2 µM | 0.259 µM | 17.8 µM |  | 
9 | COc1ncc(-c2ccc3nccc(-c4ccnnc4)c3c2)cc1NS(=O)(=O)c1ccc(F)cc1F | 0.00746 µM and < 0.01 µM | 0.0587 µM and 0.0468 µM | 0.00217 µM and < 0.01 µM | 0.019 µM and 0.0263 µM | 0.0269 µM and 0.0208 µM | > 3.68 µM and 2.91 µM | 0.00392 µM and < 0.01 µM | 0.0688 µM and 0.0434 µM | 0.0155 µM | 2.31 µM and 1.55 µM | 0.0169 µM and 0.0203 µM | 0.499 µM and 0.345 µM | 0.0111 µM and < 0.01 µM | > 100 µM | 0.0397 µM and 0.0127 µM |  |  | 
